From PMC11003488 (Journal of Enzyme Inhibition and Medicinal Chemistry, 2023)
Like-named read-outs stand apart in the source and are kept apart here.

Experiments:
NCI-H226 = experiment: NCI-60 SRB growth inhibition, one-dose and five-dose; assay type: cell-based; conditions: Homo sapiens
UACC-62 = experiment: as above; assay type: cell-based; conditions: Homo sapiens
SF-268 = experiment: as above; assay type: cell-based; conditions: Homo sapiens
HCT-116 = experiment: as above; assay type: cell-based; conditions: Homo sapiens
SNB-75 = experiment: as above; assay type: cell-based; conditions: Homo sapiens
SW-620 = experiment: as above; assay type: cell-based; conditions: Homo sapiens
ACHN = experiment: as above; assay type: cell-based; conditions: Homo sapiens
NCI/ADR-RES = experiment: as above; assay type: cell-based; conditions: Homo sapiens
U251 = experiment: as above; assay type: cell-based; conditions: Homo sapiens
HCT-15 = experiment: as above; assay type: cell-based; conditions: Homo sapiens
MALME-3M = experiment: as above; assay type: cell-based; conditions: Homo sapiens
HL-60(TB) = experiment: cells; assay type: cell-based; conditions: Homo sapiens
TK-10 = experiment: NCI-60 SRB growth inhibition, one-dose and five-dose; assay type: cell-based; conditions: Homo sapiens
COLO 205 = experiment: as above; assay type: cell-based; conditions: Homo sapiens
A498 = experiment: as above; assay type: cell-based; conditions: Homo sapiens
OVCAR-3 = experiment: as above; assay type: cell-based; conditions: Homo sapiens
MDA-MB-468 = experiment: as above; assay type: cell-based; conditions: Homo sapiens
T-47D = experiment: as above; assay type: cell-based; conditions: Homo sapiens, T47D
MCF7 = experiment: as above; assay type: cell-based; conditions: Homo sapiens
HT29 = experiment: as above; assay type: cell-based; conditions: Homo sapiens
SR = experiment: as above; assay type: cell-based; conditions: Homo sapiens
RPMI-8226 = experiment: as above; assay type: cell-based; conditions: Homo sapiens
SNB-19 = experiment: as above; assay type: cell-based; conditions: Homo sapiens
IGROV1 = experiment: as above; assay type: cell-based; conditions: Homo sapiens
BT-549 = experiment: as above; assay type: cell-based; conditions: Homo sapiens
786-0 = experiment: as above; assay type: cell-based; conditions: Homo sapiens
OVCAR-8 = experiment: as above; assay type: cell-based; conditions: Homo sapiens, OVCAR-8, read-out: percent growth inhibition
NCI-H460 = experiment: as above; assay type: cell-based; conditions: Homo sapiens
M14 = experiment: as above; assay type: cell-based; conditions: Homo sapiens
HOP-92 = experiment: as above; assay type: cell-based; conditions: Homo sapiens
MDA-MB-435 = experiment: as above; assay type: cell-based; conditions: Homo sapiens
[1] = test system: NCI 60-cell line panel (full panel); experiment: NCI-60 SRB growth inhibition, full panel mean / MG-MID; assay type: cell-based, human; conditions: for GI50: Homo sapiens, 60 cell
OVCAR-5 = experiment: NCI-60 SRB growth inhibition, one-dose and five-dose; assay type: cell-based; conditions: Homo sapiens
OVCAR-4 = experiment: as above; assay type: cell-based; conditions: Homo sapiens
CAKI-1 = experiment: as above; assay type: cell-based; conditions: Homo sapiens
SK-MEL-5 = experiment: as above; assay type: cell-based; conditions: Homo sapiens
A549/ATCC = experiment: as above; assay type: cell-based; conditions: Homo sapiens
KM12 = experiment: as above; assay type: cell-based; conditions: Homo sapiens
DU-145 = experiment: as above; assay type: cell-based; conditions: Homo sapiens
HS 578 T = experiment: as above; assay type: cell-based; conditions: Homo sapiens
SN12C = experiment: as above; assay type: cell-based; conditions: Homo sapiens
CCRF-CEM = experiment: as above; assay type: cell-based; conditions: Homo sapiens
[2] = read-out: percent growth inhibition

CC(=O)Nc1ccc(CNc2cccc(C(=O)/C=C/c3cccnc3)c2)cc1 [Compound 5b, (E)-N-(4-(((3–(3-(pyridin-3-yl)acryloyl)phenyl)amino)methyl)phenyl)acetamide]
GI50 (NCI-H226; NCI-H226): 2760 nM
inhibition at 10 µM (NCI-H226; NCI-H226, read-out: percent growth inhibition): 116%
GI50 (UACC-62; UACC-62): 5030 nM
inhibition at 10 µM (UACC-62; UACC-62, read-out: percent growth inhibition): 162%
GI50 (SF-268; SF-268): 13600 nM
inhibition at 10 µM (SF-268; SF-268, read-out: percent growth inhibition): 88.6%
GI50 (HCT-116; HCT-116, HCT-116, five-dose screening): 1800 nM
inhibition at 10 µM (HCT-116; HCT-116, read-out: percent growth inhibition): 196%
GI50 (SNB-75; SNB-75): 8990 nM
inhibition at 10 µM (SNB-75; SNB-75, read-out: percent growth inhibition): 31.8%
GI50 (SW-620; SW-620): 1830 nM
inhibition at 10 µM (SW-620; SW-620, read-out: percent growth inhibition): 169%
GI50 (ACHN): 1900 nM
inhibition at 10 µM (ACHN; [2]): 165%
GI50 (NCI/ADR-RES): 3120 nM
inhibition at 10 µM (NCI/ADR-RES; [2]): 91.1%
GI50 (U251; U-251): 1900 nM
inhibition at 10 µM (U251; U-251, read-out: percent growth inhibition): 166%
GI50 (HCT-15; HCT-15): 2050 nM
inhibition at 10 µM (HCT-15; HCT-15, read-out: percent growth inhibition): 138%
GI50 (MALME-3M): 2190 nM
inhibition at 10 µM (MALME-3M; [2]): 132%
GI50 (HL-60(TB); HL-60): 2780 nM
inhibition at 10 µM (HL-60(TB); HL-60, read-out: percent growth inhibition): 144%
GI50 (TK-10; TK-10): 2530 nM
inhibition at 10 µM (TK-10; TK-10, read-out: percent growth inhibition): 85.3%
GI50 (COLO 205; COLO 205): 10900 nM
inhibition at 10 µM (COLO 205; COLO 205, read-out: percent growth inhibition): 156%
GI50 (A498; A498): 13400 nM
inhibition at 10 µM (A498; A498, read-out: percent growth inhibition): 17.5%
GI50 (OVCAR-3; OVCAR-3): 2850 nM
inhibition at 10 µM (OVCAR-3; OVCAR-3, read-out: percent growth inhibition): 190%
GI50 (MDA-MB-468; MDA-MB-468): 1670 nM
inhibition at 10 µM (MDA-MB-468; MDA-MB-468, read-out: percent growth inhibition): 175%
GI50 (T-47D): 4140 nM
inhibition at 10 µM (T-47D; [2]): 82%
GI50 (MCF7; MCF7): 1380 nM
inhibition at 10 µM (MCF7; MCF7, read-out: percent growth inhibition): 178%
GI50 (HT29; HT-29): 2190 nM
inhibition at 10 µM (HT29; HT-29, read-out: percent growth inhibition): 182%
GI50 (SR): 2010 nM
GI50 (RPMI-8226; RPMI-8226): 1920 nM
inhibition at 10 µM (RPMI-8226; RPMI-8226, read-out: percent growth inhibition): 125%
GI50 (SNB-19; SNB-19): 3610 nM
inhibition at 10 µM (SNB-19; SNB-19, read-out: percent growth inhibition): 99.1%
GI50 (IGROV1; IGROV-1): 2300 nM
inhibition at 10 µM (IGROV1; IGROV-1, read-out: percent growth inhibition): 123%
GI50 (BT-549; BT-549): 2780 nM
inhibition at 10 µM (BT-549; BT-549, read-out: percent growth inhibition): 174%
GI50 (786-0; 786-0): 3430 nM
inhibition at 10 µM (786-0; 786-0, read-out: percent growth inhibition): 160%
inhibition at 10 µM (OVCAR-8): 97.1%
GI50 (NCI-H460; NCI-H460): 2870 nM
inhibition at 10 µM (NCI-H460; NCI-H460, read-out: percent growth inhibition): 107%
GI50 (M14; M14): 2910 nM
inhibition at 10 µM (M14; M14, read-out: percent growth inhibition): 141%
GI50 (HOP-92; HOP-92): 8470 nM
inhibition at 10 µM (HOP-92; HOP-92, read-out: percent growth inhibition): 68.5%
GI50 (MDA-MB-435; MDA-MB-435): 2280 nM
inhibition at 10 µM (MDA-MB-435; MDA-MB-435, read-out: percent growth inhibition): 124%
GI50 ([1]; read-out: Full panel GI50 mean): 4650 nM
GI50 ([1]; read-out: Full panel MG-MID GI50): 4650 nM
Full panel Mean GI % ([1]; mean over NCI-60 panel, single dose 10 µM): 123.16%
GI50 (OVCAR-5; OVCAR-5): 3440 nM
inhibition at 10 µM (OVCAR-5; OVCAR-5, read-out: percent growth inhibition): 103%
GI50 (OVCAR-4; OVCAR-4): 8630 nM
inhibition at 10 µM (OVCAR-4; OVCAR-4, read-out: percent growth inhibition): 88.5%
GI50 (CAKI-1; CAKI-1): 12200 nM
inhibition at 10 µM (CAKI-1; CAKI-1, read-out: percent growth inhibition): 95.9%
GI50 (SK-MEL-5; SK-MEL-5): 6510 nM
inhibition at 10 µM (SK-MEL-5; SK-MEL-5, read-out: percent growth inhibition): 174%
GI50 (A549/ATCC; A549): 14900 nM
inhibition at 10 µM (A549/ATCC; A549, read-out: percent growth inhibition): 27.8%
GI50 (KM12; KM12): 2250 nM
inhibition at 10 µM (KM12; KM12, read-out: percent growth inhibition): 162%
GI50 (DU-145; DU-145): 5150 nM
inhibition at 10 µM (DU-145; DU-145, read-out: percent growth inhibition): 92.2%
GI50 (HS 578 T): 2570 nM
inhibition at 10 µM (HS 578 T; [2]): 88.3%
GI50 (SN12C): 2010 nM
inhibition at 10 µM (SN12C; [2]): 124%
GI50 (CCRF-CEM): 2800 nM
inhibition at 10 µM (CCRF-CEM; [2]): 141%
